This passage reports TGI and GI50 results from PubChem BioAssay (NCI).

What all share (test): growth of human tumour cells (NCI), 48 h
The subject of assay [1] is HCT-116 colon.
Assay [2] deals with UACC-62 melanoma.
Assay [3] deals with SF-295 CNS.
Assay [4] relates to ACHN renal.
Assay [5] relates to SR leukemia.
Assay [6] relates to TK-10 renal.
Assay [7] deals with OVCAR-5 ovarian.
Assay [8] relates to SW-620 colon.
Assay [9] deals with MOLT-4 leukemia.
For assay [10], the system named is RPMI-8226 leukemia.

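How tested: cells in 96-well plates exposed to compound for 48 hours at five concentrations. Abbreviation: GI50, concentration required for 50% inhibition of growth. TGI is the concentration that stops growth completely.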 Where a SMILES comes first, the peptide text is derived from it. Some results are limits rather than exact numbers.

In the case of `CC(=O)OCc1cc(OC(C)=O)cnc1COC(C)=O`, the TGI in [1], in assay [2], in assay [3], in assay [4], in assay [5] and in assay [6] was over 100 µM each time. The TGI in [7], in assay [8] and in assay [9] was over 100 µM throughout.

Take `Oc1ccc(CNCc2ccccc2)c2cccnc12`: the TGI is over 100 µM in assay [1]; over 34.8 µM in assay [2]; 61.4 µM in [3]; 22.9 µM in assay [4]; 0.768 µM in assay [10]; over 100 µM in assay [5]. In addition, the values for the TGI in assay [7], in assay [8] and in assay [9] were 99.2 µM, over 100 µM and 18.9 µM, respectively.

`O=C(O)c1ccc(O)c(N=Nc2cc(S(=O)(=O)O)c3ccccc3c2O)c1`: the TGI was 37.4 µM in assay [1]; over 10 µM in [3]; over 100 µM in assay [4]; over 100 µM in assay [10]; over 100 µM in assay [5]; over 100 µM in [6]. In addition, the TGI in assay [7], in assay [8] and in assay [9] was over 100 µM throughout.

In the case of `CC(=O)NC(CCCCNC(=O)N(CCCl)N=O)C(=O)NCc1ccccc1` (stereo not drawn), the TGI in assay [1], in assay [2], in [3], in assay [4], in assay [10] and in assay [5] was over 100 µM each time. Also, the TGI in assay [8] and in assay [9] was over 100 µM in each case.

Take `Cc1ccc([N+](=O)[O-])cc1NC(=O)C(=O)Cc1occc(=O)c1O`: the TGI in assay [2], in assay [3], in assay [4], in assay [10], in assay [5] and in assay [6] was over 100 µM each time. Moreover, the TGI in [7] and in assay [8] was over 100 µM throughout.

`Cc1cc(O)c(C(c2cccnc2)c2c(O)cc(C)[nH]c2=O)c(=O)[nH]1`: the TGI in [1], in assay [2], in [3], in [4], in [10] and in [5] was over 100 µM throughout. Moreover, the TGI in [6], in assay [7] and in assay [9] was over 100 µM throughout.

For `O=C1C(=O)N(C(=O)c2ccc(Cl)c(Cl)c2)c2ccc(Cl)cc21`, the TGI in assay [2], in assay [3], in assay [4], in assay [10], in assay [5] and in assay [6] was over 100 µM throughout. In addition, the TGI in assay [7], in [8] and in assay [9] was over 100 µM throughout.

Turning to `CC1(C)OC(C(N)=O)=C(C(N)=O)O1`, the TGI in assay [1], in assay [2], in assay [3], in assay [4], in [5] and in assay [6] was over 100 µM in each case. In addition, the TGI in [7], in assay [8] and in assay [9] was over 100 µM each time.

In the case of `CC(C)CC(NC(=O)C(CC(C)C)NC(=O)C(Cc1cnc[nH]1)NC(=O)C(C)NC(=O)C(NC(=O)C(C)NC(=O)C(Cc1c[nH]c2ccccc12)NC(=O)C(CCC(=O)O)NC(=O)C(N)Cc1ccccc1)C(C)C)C(N)=O` (stereo not drawn) (H-FEWAVAHLL-NH2; configuration not given here), the GI50 in assay [1], in [2], in assay [3], in assay [10], in assay [5] and in assay [8] was over 100 µM each time. Further, the GI50 in assay [9] was over 100 µM. The TGI in assay [1], in assay [2], in assay [3], in assay [4], in assay [10] and in [5] was over 100 µM throughout. Further, the TGI in [7] is over 12.5 µM; in assay [8], over 100 µM; in assay [9], over 100 µM.

Regarding `Cn1ncc2c(/N=C/c3cccs3)[nH]c(=S)nc21`, the GI50 in [1] was 33.9 µM; in assay [2] it was 19.6 µM; in [3], 41.1 µM; in assay [4], 37.6 µM; in assay [10], 31.6 µM; in [6], 40.6 µM. The GI50 in assay [7] was 54 µM; in assay [8] it was 31.5 µM; in assay [9] it was 44.1 µM. Also, the TGI in assay [1] was 98 µM; in assay [2], 52.4 µM; in [3], over 83.3 µM; in assay [4], over 80 µM; in [10], over 100 µM; in assay [6], over 85.2 µM. Further, the TGI in assay [7], in assay [8] and in assay [9] was over 100 µM in each case.

In the case of `Cc1ccc(S(=O)(=O)/N=c2\ssc(Nc3ccccc3)c2Cl)cc1`, the GI50 in assay [2] was 13.5 µM; in assay [3], 1.15 µM; in assay [4], 9.58 µM; in assay [10], 7.77 µM; in [5] it was 9.06 µM; in assay [6], 8.21 µM. Besides, the GI50 in assay [7] is 21.1 µM; in assay [9], 10.3 µM. Further, the TGI was over 50 µM in [2]; 12.4 µM in assay [3]; 22.5 µM in assay [4]; 26.8 µM in assay [10]; 25.1 µM in [5]; 22.8 µM in assay [6]. The TGI in assay [7] and in assay [9] was over 50 µM each time.

Turning to `O=C(Nc1n[nH]c2nc(-c3ccco3)ccc12)C1CC1`, the GI50 in assay [1], in assay [2], in [3], in assay [4], in assay [10] and in assay [6] was over 25 µM throughout. Besides, the GI50 in assay [7], in assay [8] and in assay [9] was over 25 µM each time. In addition, the TGI in assay [1], in [2], in assay [3], in [4], in assay [10] and in [6] was over 25 µM in each case. Also, the TGI in assay [7], in assay [8] and in [9] was over 25 µM throughout.
